Data on two compounds can be found in BindingDB's records for doi:10.1016/j.ejmech.2018.01.047 (Cnrs, 2018).

This assay concerns the target T1, Enoyl-[acyl-carrier-protein] reductase [NADH] (Mycobacterium tuberculosis (strain ATCC 25618 / H37Rv), UniProt P9WGR1).
T1 sequence (P9WGR1 whole entry): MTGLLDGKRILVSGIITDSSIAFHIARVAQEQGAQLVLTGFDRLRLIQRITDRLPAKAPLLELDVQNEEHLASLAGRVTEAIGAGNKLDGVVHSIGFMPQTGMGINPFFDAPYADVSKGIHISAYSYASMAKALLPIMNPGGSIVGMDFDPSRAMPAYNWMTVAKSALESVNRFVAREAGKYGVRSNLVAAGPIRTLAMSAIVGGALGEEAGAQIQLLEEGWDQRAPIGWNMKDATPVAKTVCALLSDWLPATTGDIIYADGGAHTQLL
Briefly: Inhibition of Mycobacterium tuberculosis InhA.

`CCCCCCc1ccc(Oc2ccccc2Cl)c(O)c1` [PT91]: the half-maximal inhibitory concentration (IC50) was 49 nM.

In the case of `CCCCCCc1ccc(Oc2ccccc2C#N)c(O)c1` [PT119], the IC50 came out at 236 nM.
